Assay results published in patent US5952307A, “Basic α-aminoalkylphosphonate derivatives” (priority 1997, dated 1999).
Like-named read-outs stand apart in the source and are kept apart here.

Key:
Format in all cases: biochemical
mast cell tryptase = mast cell tryptase (Homo sapiens, UniProt Q15661); experiment: Inactivation rate of mast cell tryptase, incubation method; conditions: for kobs /[I] mast cell tryptase: 25° C., NI = no inhibition; for kobsd /[I] mast cell tryptase: Table I, 0.1M Hepes, 10% glycerol, 10 mM heparin, pH 7.5, 25° C., 7.1% DMSO, NI = no inhibition after 25 min of incubation
In short: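 Incubation method at 25 °C: 0.07 μM tryptase with 20–66 μM inhibitor in Hepes pH 7.5 containing heparin, glycerol and DMSO. Aliquots were withdrawn at intervals for residual activity on Z-Arg-SBzl or Z-Lys-SBzl with DTNB. Pseudo-first-order kobs came from ln(vt/v0) versus time.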

human thrombin = target: T1, human thrombin (Homo sapiens, UniProt P00734); conditions: 25° C., NI = no inhibition
T1 construct: bovine trypsin, human thrombin
In short: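 Irreversible inactivation followed by incubation method at 25 °C: 0.07 μM thrombin with 0.25–42 μM inhibitor in 80 mM Hepes pH 7.5, 428 mM NaCl, 8% DMSO. Residual activity of withdrawn aliquots measured with thioester or 4-nitroanilide substrates; kobs from pseudo-first-order fits.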

plasmin = target: T2, plasmin (Homo sapiens, UniProt P00747); experiment: Inactivation rate of plasmin, incubation method; conditions: Table III; enzyme 0.06-0.5 μM, inhibitor 0.25-42 μM, 9% DMSO, 25° C.; NI = no inhibition
T2 construct: factor Xa, plasmin, and urokinase
Experimental: (§1) Inactivation rates of serine proteases by aryl diesters of peptidyl derivatives of α-aminoalkylphosphonates were measured by the incubation method. An aliquot of inhibitor (25 or 50 μl) in Me2 SO was added to a buffered enzyme solution (0.01-2.3 μM) to initiate the inactivation. Aliquots (50 μl) were withdrawn at various intervals and the residual enzymatic activity was measured. Me2 SO concentration in the reaction mixture was 8-12% (v/v). A 0.1 M HEPES, 0.01 M CaCl2, pH 7.5 buffer was utilized for trypsin and trypsin-like enzymes. A 0.1 M HEPES, 0.5 M NaCl, pH 7.5, was utilized for the other serine proteases. Peptide thioesters or peptide nitroanilides with the appropriate sequences were used as substrates for various serine proteases. All peptide thioesters hydrolysis rates were measured with the assay mixture containing 4,4'-dithiodipyridine {ε324 =19800 M^-1 cm^-1; Grasetti & Murray, Arch. Biochem. Biophys. 1967, 119, 41-48}. Peptide 4-nitroanilide hydrolysis was measured at 410 nm {ε410 =8800 M^-1 cm^-1; Erlanger et al., Arch. Biochem. Biophys. 1961, 95, 271-278}. First order inactivation rate constants (Kobs) were obtained from plots of In vt /vo vs time, and the correlation coefficients were greater then 0.98.
(§2) ^a Enzyme (0.06-0.5 μM) was incubated with the inhibitor (0.25-42
(§3) μM) in 250 μL of the proper buffer containing 9% DMSO at 25°
(§4) C. The final inhibition reaction mixtures are given in the footnote to
(§5) Table 1. Aliquots of 25 μL were withdrawn at various intervals and the
(§6) residual enzymatic activity was measured as described in experimental
(§7) section. The kobs values were calculated from pseudofirst-order
^b Inhibitor concentration of 0.24 mM.

urokinase = urokinase (Homo sapiens, UniProt P00749); experiment: Inactivation rate of urokinase, incubation method; conditions: Table III; enzyme 0.06-0.5 μM, inhibitor 0.25-42 μM, 9% DMSO, 25° C.; NI = no inhibition
Experimental: as §1, §2, §3, §4, §5, §6, §7

bovine trypsin [1] = target: T3, bovine trypsin (Bos taurus, UniProt P00760); experiment: Inactivation rate of bovine trypsin, incubation method; conditions: Table III; enzyme 0.06-0.5 μM, inhibitor 0.25-42 μM, 9% DMSO, 25° C.; NI = no inhibition
T3 sequence (P00760 24-246): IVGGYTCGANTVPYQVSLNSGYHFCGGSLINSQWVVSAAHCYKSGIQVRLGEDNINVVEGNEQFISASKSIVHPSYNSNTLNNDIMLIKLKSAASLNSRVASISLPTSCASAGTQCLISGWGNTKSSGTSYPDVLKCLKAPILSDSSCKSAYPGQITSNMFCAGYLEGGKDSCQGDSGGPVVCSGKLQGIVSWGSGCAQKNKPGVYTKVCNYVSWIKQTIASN

human granzyme A = target: T4, human granzyme A (Homo sapiens, UniProt P12544); experiment: Inactivation rate of human granzyme A, incubation method; conditions: Table I; 0.1M Hepes, 0.01M CaCl2 pH 7.5, 25° C., 7.6% DMSO, substrate Z--Arg--SBzl
T4 sequence (P12544 29-262): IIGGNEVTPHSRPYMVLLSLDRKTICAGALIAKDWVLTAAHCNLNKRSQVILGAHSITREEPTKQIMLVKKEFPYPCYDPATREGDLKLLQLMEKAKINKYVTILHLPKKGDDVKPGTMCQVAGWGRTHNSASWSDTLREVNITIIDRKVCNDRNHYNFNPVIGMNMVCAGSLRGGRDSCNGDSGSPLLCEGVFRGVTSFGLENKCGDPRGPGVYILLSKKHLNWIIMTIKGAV
In short: (§8)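 Inhibitor in DMSO added to enzyme (0.01-2.3 μM) in 0.1 M HEPES, 0.01 M CaCl2, pH 7.5, 25° C (DMSO 7.6% for granzyme A, 7.1% for granzyme K); residual activity on Z-Arg-SBzl with DTNB read at intervals. Kobs from ln vt/vo vs time plots.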

rat granzyme A = experiment: Inactivation rate of rat granzyme A, incubation method; conditions: Table I; 0.1M Hepes, 0.01M CaCl2 pH 7.5, 25° C., 7.6% DMSO, substrate Z--Arg--SBzl
Experimental: as §1
^a Inhibition constants were measured in 0.1M Hepes, 0.01M CaCl2
pH 7.5 for trypsin, granzymes A, and K, and in 0.1M Hepes, 10% glycerol,
10 mM heparin, pH 7.5 for mast cell tryptase, and at 25° C. The
reaction mixtures contained 2% DMSO for trypsin, 7.6% for granzyme A, and
7.1% for granzyme K and tryptase. The substrate was Z--Arg--SBzl for
granzymes and trypsin, and Z--Arg--SBzl or Z--Lys--SBzl for tryptase in
the presence of DTNB. The inhibitor # concentration ranged from 0.001 to
^b NI, no inhibition after 25 min of incubation with enzyme.

rat granzyme K = target: T5, rat granzyme K (Rattus norvegicus, UniProt P49864); experiment: Inactivation rate of rat granzyme K, incubation method; conditions: Table I; 0.1M Hepes, 0.01M CaCl2 pH 7.5, 25° C., 7.1% DMSO, substrate Z--Arg--SBzl; NI = no inhibition after 25 min of incubation
T5 sequence (P49864 26-258): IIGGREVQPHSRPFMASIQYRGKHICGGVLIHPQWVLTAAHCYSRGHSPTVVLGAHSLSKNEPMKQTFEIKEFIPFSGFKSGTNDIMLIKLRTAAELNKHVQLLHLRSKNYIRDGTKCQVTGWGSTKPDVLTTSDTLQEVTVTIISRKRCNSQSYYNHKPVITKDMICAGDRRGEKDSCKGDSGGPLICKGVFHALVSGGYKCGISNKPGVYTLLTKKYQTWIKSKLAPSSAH
In short: as §8

bovine trypsin [2] = target: T3, bovine trypsin; experiment: Inactivation rate of bovine trypsin, incubation method; conditions: for kobsd /[I] bovine trypsin: Table I, 0.1M Hepes, 0.01M CaCl2 pH 7.5, 25° C., 2% DMSO, substrate Z--Arg--SBzl, NI = no inhibition after 25 min; for kobs /[I] bovine trypsin: Table II, 0.13 μM trypsin, 0.25-42 μM inhibitor, 80 mM Hepes pH 7.5, 1 mM CaCl2, 8% DMSO, 25° C., NI = no inhibition
In short: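 Incubation method: trypsin pre-incubated with inhibitor (0.25-42 μM) at 25° C in 80 mM Hepes, 1 mM CaCl2, pH 7.5, 8% DMSO; aliquots withdrawn over time for residual activity on Z-Arg-SBzl thioester with DTNB or 4,4'-dithiodipyridine. Pseudo-first-order kobs from ln vt/vo versus time.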

[3] = Table III, enzyme 0.06-0.5 μM, inhibitor 0.25-42 μM, 9% DMSO
[4] = Table II, 0.07 μM tryptase, 20-66 μM inhibitor, Hepes pH 7.5, heparin, 9% glycerol, 8% DMSO
[5] = Table II, 0.07 μM thrombin, 0.25-42 μM inhibitor, 80 mM Hepes pH 7.5, 428 mM NaCl, 8% DMSO

T2 sequence (P00747 581-810 limits assumed, species assumed): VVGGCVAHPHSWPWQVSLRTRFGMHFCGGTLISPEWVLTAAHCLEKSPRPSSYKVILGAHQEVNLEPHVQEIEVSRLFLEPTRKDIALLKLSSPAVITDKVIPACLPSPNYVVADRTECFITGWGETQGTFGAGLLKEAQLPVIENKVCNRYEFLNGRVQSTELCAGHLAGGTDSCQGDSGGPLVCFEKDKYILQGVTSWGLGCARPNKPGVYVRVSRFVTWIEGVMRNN
T2 sequence (P00747 97-580 partner limits assumed, species assumed): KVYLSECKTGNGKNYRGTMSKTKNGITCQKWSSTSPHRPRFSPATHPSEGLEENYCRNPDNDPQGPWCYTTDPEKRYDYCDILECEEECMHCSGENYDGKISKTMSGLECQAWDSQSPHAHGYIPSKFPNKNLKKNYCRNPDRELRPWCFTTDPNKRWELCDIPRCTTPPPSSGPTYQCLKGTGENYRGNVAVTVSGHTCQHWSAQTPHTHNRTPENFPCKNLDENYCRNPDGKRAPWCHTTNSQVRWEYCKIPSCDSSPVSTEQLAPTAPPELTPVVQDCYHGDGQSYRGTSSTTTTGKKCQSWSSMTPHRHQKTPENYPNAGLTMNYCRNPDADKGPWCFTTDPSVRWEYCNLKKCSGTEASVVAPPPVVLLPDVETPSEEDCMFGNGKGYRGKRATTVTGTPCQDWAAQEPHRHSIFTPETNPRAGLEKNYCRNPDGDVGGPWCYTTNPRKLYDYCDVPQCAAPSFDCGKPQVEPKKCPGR
Chain of mast cell tryptase (Q15661 31-275): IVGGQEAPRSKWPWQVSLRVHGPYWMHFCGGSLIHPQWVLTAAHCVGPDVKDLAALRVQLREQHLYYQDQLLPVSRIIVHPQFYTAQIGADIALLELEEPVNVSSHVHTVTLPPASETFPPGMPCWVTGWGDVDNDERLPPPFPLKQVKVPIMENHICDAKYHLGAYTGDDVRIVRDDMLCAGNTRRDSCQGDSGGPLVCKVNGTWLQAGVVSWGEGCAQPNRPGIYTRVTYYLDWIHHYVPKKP

Compound | kobs /[I] mast cell tryptase (mast cell tryptase; [3]) | kobs /[I] human thrombin (human thrombin; [3]) | kobs /[I] plasmin (plasmin) [M⁻¹ s⁻¹] | kobs /[I] urokinase (urokinase) [M⁻¹ s⁻¹] | kobs /[I] bovine trypsin (bovine trypsin [1]) | kobsd /[I] human granzyme A (human granzyme A) [M⁻¹ s⁻¹] | kobsd /[I] rat granzyme A (rat granzyme A) [M⁻¹ s⁻¹] | kobsd /[I] rat granzyme K (rat granzyme K) [M⁻¹ s⁻¹] | kobsd /[I] mast cell tryptase (mast cell tryptase) [M⁻¹ s⁻¹] | kobs /[I] mast cell tryptase (mast cell tryptase; [4]) [M⁻¹ s⁻¹] | kobsd /[I] bovine trypsin (bovine trypsin [2]) [M⁻¹ s⁻¹] | kobs /[I] bovine trypsin (bovine trypsin [2]) [M⁻¹ s⁻¹] | kobs /[I] human thrombin (human thrombin; [5]) [M⁻¹ s⁻¹]
CC(C)(C)OC(=O)NC(Cc1ccccc1)C(=O)N1CCCC1C(=O)NC(CCCCN)P(=O)(Oc1ccccc1)Oc1ccccc1 (mixture of isomers) [Boc--D--Phe--Pro--Lys^P (OPh)2] | 68 ± 4 M⁻¹ s⁻¹ | 9,364 ± 110 M^-1 s^-1 | 51 ± 4 | 38 ± 3 | 28,840 ± 1,800 M^-1 s^-1 |  |  |  |  |  |  |  | 
CC(O)C(NC(=O)OCc1ccccc1)C(=O)NC(CCCCN)P(=O)(Oc1ccccc1)Oc1ccccc1 (mixture of isomers) [Cbz--Thr--Lys^P (OPh)2] | 7 ± 1 M⁻¹ s⁻¹ |  |  | 0.7 ± 0.1 | 230 M⁻¹ s⁻¹ |  |  |  |  |  |  |  | 
NCCCCCC(NC(=O)C1CCCN1C(=O)C(N)Cc1ccccc1)P(=O)(Oc1ccccc1)Oc1ccccc1 (mixture of isomers) [D--Phe--Pro-HomoLys^P (OPh)2] | 4.1 0.2 M^-1 s^-1 | 1,342 ± 272 M^-1 s^-1 |  | 7.8 ± 0.0 | 164 ± 14 M⁻¹ s⁻¹ |  |  |  |  |  |  |  | 
NCCCCC(NC(=O)C1CCCN1C(=O)CNS(=O)(=O)Cc1ccccc1)P(=O)(Oc1ccccc1)Oc1ccccc1 (mixture of isomers) [PhCH2 SO2 --Gly--Pro--Lys^P (OPh)2] | 24 ± 0 M⁻¹ s⁻¹ | 649 ± 14 M⁻¹ s⁻¹ | 13 ± 1 | 39 ± 2 | 12,472 ± 1,400 M^-1 s^-1 |  |  |  |  |  |  |  | 
NCCCCCC(NC(=O)C1CCCN1C(=O)CNS(=O)(=O)Cc1ccccc1)P(=O)(Oc1ccccc1)Oc1ccccc1 (mixture of isomers) [PhCH2 SO2 Gly--Pro-HomoLys^P (OPh)2] | 32 ± 2 M⁻¹ s⁻¹ | 137 ± 12 M⁻¹ s⁻¹ | 8.4 ± 0.2 | 38 ± 3 | 528 ± 59 M⁻¹ s⁻¹ |  |  |  |  |  |  |  | 
Cl.NCCCCC(NC(=O)[C@@H]1CCCN1C(=O)c1ccccc1Oc1ccccc1)P(=O)(Oc1ccccc1)Oc1ccccc1 (some centres unmarked) [2-Phenoxybenzoyl-Pro--Lys^P (OPh)2, Diphenyl 1-(N-(2-Phenoxybenzoylprolyl)amino)-5-aminopentanephosphonate Hydrochloride] | 19 ± 1 M⁻¹ s⁻¹ | 4,531 ± 140 M^-1 s^-1 | 7.1 ± 0.2 | 0.6 ± 0.1 | 16,411 ± 460 M^-1 s^-1 |  |  |  |  |  |  |  | 
Cl.NCCCCCC(NC(=O)[C@@H]1CCCN1C(=O)c1ccccc1Oc1ccccc1)P(=O)(Oc1ccccc1)Oc1ccccc1 (some centres unmarked) [2-Phenoxybenzoyl-Pro-HomoLys^P (OPh)2, Diphenyl 1-(N-(2-Phenoxybenzoylprolyl)amino)-6-aminohexanephosphonate Hydrochloride] | 7.7 ± 0.3 M⁻¹ s⁻¹ | 57 ± 5 M⁻¹ s⁻¹ | 3.6 ± 0.4 | 24 ± 4 | 69 ± 13 M⁻¹ s⁻¹ |  |  |  |  |  |  |  | 
NCCCCC(NC(=O)[C@@H]1CCCN1C(=O)CC(c1ccccc1)c1ccccc1)P(=O)(Oc1ccccc1)Oc1ccccc1 (some centres unmarked) [3,3-Diphenylpropanoyl-Pro--Lys^P (OPh)2] | 74 ± 9 M⁻¹ s⁻¹ | 27,450 ± 803 M^-1 s^-1 | 7.0 ± 0.2 | 1.5 ± 0.0 | 14,447 ± 905 M^-1 s^-1 |  |  |  |  |  |  |  | 
Cl.N=C(N)c1ccc(C(NC(=O)C=Cc2cccs2)P(=O)(Oc2ccccc2)Oc2ccccc2)cc1 (centres unmarked) [Diphenyl N-(3-(2-Thienyl)acryloyl)amino(4-amidinophenyl)methanephosphonate Hydrochloride] |  |  |  |  |  | 740 ± 18 | 430 ± 31 | 4 | 1 | 1 | 300 ± 22 | 300 ± 22 | 90 ± 4
Cl.N=C(N)c1ccc(C(NC(=O)/C=C/c2ccccc2)P(=O)(Oc2ccccc2)Oc2ccccc2)cc1 (stereo not drawn) [trans-Cinnamoyl-(4-AmPhGly)^P (OPh)2, Diphenyl N-(trans-Cinnamoyl)amino(4-amidinophenyl)methanephosphonate Hydrochloride] |  |  |  |  |  | 400 ± 10 | 340 ± 18 | 3 | 0.3 | 0.3 | 110 ± 1 | 110 ± 1 | 20 ± 1
Diphenyl N-(N-Benzyloxycarbonyl)amino(6-aminohexyl)methanephosphonate [Cbz-HomoLys^P (OPh)2] | 0.7 M⁻¹ s⁻¹ |  |  | 1.0 ± 0.0 | 21 ± 6 M⁻¹ s⁻¹ |  |  |  |  |  |  |  | 
